Experimental data: ChEMBL document CHEMBL4613241, “Disulfide Cleavage in a Dimeric Epipolythiodioxopiperazine Natural Product Diminishes Its Apoptosis-Inducing Effect but Enhances Autophagy in Tumor Cells” (2020)
Calls of active or inactive are those of the source. The rule behind the calls is not given here.

Legend:
HCT-116 = test: Antiproliferative activity against human HCT116 cells assessed as reduction in cell viability by MTS assay; type: functional, cell-based
MCF7 = test: Antiproliferative activity against human MCF7 cells assessed as reduction in cell viability by MTS assay; type: functional, cell-based
SW480 = test: Antiproliferative activity against human SW480 cells assessed as reduction in cell viability by MTS assay; type: functional, cell-based
HepG2 [1] = test: Induction of autophagy in human HepG2 cells assessed as increase in LC3 puncta staining at 0.5 uM after 4 hrs by immunostaining based fluorescence microscopic analysis; type: functional, cell-based
T-24 = test: Induction of autophagy in human T24 cells assessed as increase in ratio of LC3-2 to total Erk1/2 protein level at 0.5 uM after 12 hrs by Western blot analysis; type: functional, cell-based
HepG2 [2] = test: Induction of autophagy in human HepG2 cells assessed as ratio of LC3-2 to total Erk1/2 protein level at 0.5 uM after 4 hrs in presence of CQ by Western blot analysis (reference value: 2.6); type: functional
HepG2 [3] = test: Induction of autophagy in human HepG2 cells assessed as accumulation of LC3-2 protein level at 0.5 uM after 4 hrs in presence of CQ by Western blot analysis analysis relative to CQ; type: functional
HepG2 [4] = test: Induction of autophagy in human HepG2 cells assessed as ratio of LC3-2 to total Erk1/2 protein level at 0.5 uM after 12 hrs by Western blot analysis (reference value: 1); type: functional
HepG2 [5] = test: Induction of autophagy in human HepG2 cells assessed as ratio of LC3-2 to total Erk1/2 protein level at 0.5 uM after 12 hrs in presence of CQ by Western blot analysis (reference value: 3.9); type: functional
HepG2 [6] = test: Induction of autophagy in human HepG2 cells assessed as accumulation of LC3-2 protein level at 0.5 uM after 12 hrs in presence of CQ by Western blot analysis relative to CQ; type: functional
[7] = biological target: Serine/threonine-protein kinase mTOR (Homo sapiens) (UniProt P42345); test: Inhibition of mTOR phosphorylation at S2448 residue in human HepG2 cells assessed as ratio of phosphorylated mTOR to total mTOR level at 0.1 uM after 4 hrs by Western blot analysis (reference value: 1); type: cell-based
[8] = biological target: Serine/threonine-protein kinase mTOR (Homo sapiens) (UniProt P42345); test: Inhibition of mTOR phosphorylation at S2448 residue in human HepG2 cells assessed as ratio of phosphorylated mTOR to total mTOR level at 0.25 uM after 4 hrs by Western blot analysis (reference value: 1); type: cell-based
[9] = biological target: Serine/threonine-protein kinase mTOR (Homo sapiens) (UniProt P42345); test: Inhibition of mTOR phosphorylation at S2448 residue in human HepG2 cells assessed as ratio of phosphorylated mTOR to total mTOR level at 0.5 uM after 4 hrs by Western blot analysis (reference value: 1); type: cell-based
[10] = biological target: Serine/threonine-protein kinase mTOR (Homo sapiens) (UniProt P42345); test: Inhibition of mTOR phosphorylation at S2448 residue in human HepG2 cells assessed as ratio of phosphorylated mTOR to total mTOR level at 1 uM after 4 hrs by Western blot analysis (reference value: 1); type: cell-based
[11] = biological target: Serine/threonine-protein kinase mTOR (Homo sapiens) (UniProt P42345); test: Inhibition of mTOR phosphorylation at S2448 residue in human HepG2 cells assessed as ratio of phosphorylated mTOR to total ERK level at 0.05 uM after 4 hrs by Western blot analysis (reference value: 1); type: cell-based
[12] = biological target: Serine/threonine-protein kinase mTOR (Homo sapiens) (UniProt P42345); test: Inhibition of mTOR phosphorylation at S2448 residue in human HepG2 cells assessed as ratio of phosphorylated mTOR to total ERK level at 0.1 uM after 4 hrs by Western blot analysis (reference value: 1); type: cell-based
[13] = biological target: Serine/threonine-protein kinase mTOR (Homo sapiens) (UniProt P42345); test: Inhibition of mTOR phosphorylation at S2448 residue in human HepG2 cells assessed as ratio of phosphorylated mTOR to total ERK level at 0.25 uM after 4 hrs by Western blot analysis (reference value: 1); type: cell-based
[14] = biological target: Serine/threonine-protein kinase mTOR (Homo sapiens) (UniProt P42345); test: Inhibition of mTOR phosphorylation at S2448 residue in human HepG2 cells assessed as ratio of phosphorylated mTOR to total ERK level at 0.5 uM after 4 hrs by Western blot analysis (reference value: 1); type: cell-based
[15] = biological target: Serine/threonine-protein kinase mTOR (Homo sapiens) (UniProt P42345); test: Inhibition of mTOR phosphorylation at S2448 residue in human HepG2 cells assessed as ratio of phosphorylated mTOR to total ERK level at 1 uM after 4 hrs by Western blot analysis (reference value: 1); type: cell-based
[16] = biological target: RAC-alpha serine/threonine-protein kinase (Homo sapiens) (UniProt P31749); test: Inhibition of AKT phosphorylation at S473 residue in human HepG2 cells assessed as ratio of phosphorylated Akt to total ERK level at 0.5 uM after 4 hrs by Western blot analysis (reference value: 1); type: cell-based
HepG2 [17] = test: Induction of autophagy in human HepG2 cells assessed as ratio of LC3-2 level to total Erk1/2 protein level at 0.5 uM after 4 hrs in presence of CC and CQ by Western blot analysis (reference value: 2.4); type: functional
HepG2 [18] = test: Activation of AMPKalpha in human HepG2 cells assessed as ratio of phosphorylated AMPKalpha at T172 residue to total ERK level at 0.5 uM incubated for 4 hrs in presence of CC by Western blot analysis (reference value: 1); type: cell-based
HepG2 [19] = test: Activation of AMPKalpha in human HepG2 cells assessed as ratio of phosphorylated ACCalpha at S79 residue to total ERK level at 0.5 uM incubated for 4 hrs in presence of CC by Western blot analysis (reference value: 1.1); type: cell-based
HepG2 [20] = test: Activation of AMPKalpha in human HepG2 cells assessed as ratio of phosphorylated ACCalpha at S79 residue to total ERK level at 0.5 uM incubated for 4 hrs in presence of CC by Western blot analysis relative to CC; type: cell-based
HepG2 [21] = test: Induction of autophagy in human HepG2 cells assessed as ratio of PFKFB3 expression to total ERK level after 2 hrs by Western blot analysis (reference value: 1); type: functional
HepG2 [22] = test: Induction of autophagy in human HepG2 cells assessed as ratio of HK2 expression to total ERK level after 2 hrs by Western blot analysis (reference value: 1); type: functional
HepG2 [23] = test: Induction of autophagy in human HepG2 cells assessed as ratio of LC3-2 level to total ERK level at 0.5 uM after 2 hrs in presence of PFK15 by Western blot analysis (reference value: 1.1); type: functional
HepG2 [24] = test: Induction of autophagy in human HepG2 cells assessed as ratio of LC3-2 level to total ERK level at 0.5 uM after 2 hrs in presence of PFKFB3 siRNA and CQ by Western blot analysis (reference value: 0.8); type: functional
HepG2 [25] = test: Induction of autophagy in human HepG2 cells ratio of LC3-2 level to total ERK level at 0.5 uM after 2 hrs in presence of PFKFB3 siRNA and CQ by Western blot analysis relative to PFKFB3 siRNA; type: functional
HepG2 [26] = test: Induction of autophagy in human HepG2 cells assessed as ratio of LC3-2 level to total ERK level at 0.5 uM after 2 hrs in presence of HK2 siRNA by Western blot analysis (reference value: 3.1); type: functional

Sequence of RAC-alpha serine/threonine-protein kinase (Homo sapiens) (P31749 whole entry): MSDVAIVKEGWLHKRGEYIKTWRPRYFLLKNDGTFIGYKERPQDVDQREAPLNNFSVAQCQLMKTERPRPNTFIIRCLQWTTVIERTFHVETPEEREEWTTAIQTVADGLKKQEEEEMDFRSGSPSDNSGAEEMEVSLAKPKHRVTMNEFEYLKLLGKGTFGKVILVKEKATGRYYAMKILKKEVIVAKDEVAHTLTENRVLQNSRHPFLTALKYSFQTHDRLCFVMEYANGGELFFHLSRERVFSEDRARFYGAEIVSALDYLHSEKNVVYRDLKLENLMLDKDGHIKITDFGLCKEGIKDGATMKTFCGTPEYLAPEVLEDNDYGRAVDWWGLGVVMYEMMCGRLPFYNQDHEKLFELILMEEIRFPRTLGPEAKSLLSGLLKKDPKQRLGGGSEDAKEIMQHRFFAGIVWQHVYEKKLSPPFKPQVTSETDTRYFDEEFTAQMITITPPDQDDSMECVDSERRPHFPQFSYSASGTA

Structure (SMILES)	Activity (HCT-116)	Activity (MCF7)	Activity (SW480)	Activity (HepG2 [1])	Activity (T-24)	Ratio (HepG2 [2])	fold change (FC) (HepG2 [3])	Ratio (HepG2 [4])	Ratio (HepG2 [5])	fold change (FC) (HepG2 [6])	Ratio [7]	Ratio [8]	Ratio [9]	Ratio [10]	Ratio [11]	Ratio [12]	Ratio [13]	Ratio [14]	Ratio [15]	Ratio [16]	other results
CC[C@@]12SS[C@]3(C(=O)N1C)[C@@H](O)C1(C45c6ccccc6N[C@@H]4N4C(=O)[C@]6([C@@H](C)O)SS[C@]4(C(=O)N6C)[C@H]5O)c4ccccc4N[C@@H]1N3C2=O (stereo not given in full)	Active	Active	Active	Active	Active	2.8	2.3	1.3	4.2	3.2	1.2	1.4	1.8	1.8	1	0.9	1	1	1	1.2	Ratio (HepG2 [17]): 0.9; Ratio (HepG2 [18]): 0.9; Ratio (HepG2 [19]): 1; fold change (FC) (HepG2 [20]): 0.7; Ratio (HepG2 [21]): 0.7; Ratio (HepG2 [22]): 0.8; Ratio (HepG2 [23]): 1.3; Ratio (HepG2 [24]): 4.3; fold change (FC) (HepG2 [25]): 4.8; Ratio (HepG2 [26]): 1.6
CCC1(SC)C(=O)N2[C@H]3N(C)c4ccccc4C3(C34c5ccccc5N(C)[C@@H]3N3C(=O)C(SC)([C@@H](C)O)N(C)C(=O)C3(SC)[C@H]4O)[C@H](O)C2(SC)C(=O)N1C (stereo not given in full)	Active	Active	Active	Active	Active	3.1	2.8	1.2	4.4	3.6	1.8	2.2	2.2	2.2	1	1	1	1	0.9	1.1	Ratio (HepG2 [17]): 0.9; Ratio (HepG2 [18]): 0.9; Ratio (HepG2 [19]): 1.1; fold change (FC) (HepG2 [20]): 0.7; Ratio (HepG2 [21]): 0.6; Ratio (HepG2 [22]): 0.6; Ratio (HepG2 [23]): 1.6; Ratio (HepG2 [24]): 4.6; fold change (FC) (HepG2 [25]): 4.6; Ratio (HepG2 [26]): 1.1
